Laboratory results taken from PubChem BioAssay (NCI).
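GI50 marks 50% less growth. TGI marks complete inhibition of growth.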

What was measured:
Assay in all cases: NCI anticancer screen, dose series, 384-well format
DU-145 prostate = tested on: DU-145 prostate
HCT-116 colon = tested on: HCT-116 colon
SK-MEL-5 melanoma = tested on: SK-MEL-5 melanoma
NCI-H23 lung = tested on: NCI-H23 lung
MDA-MB-231 breast = tested on: MDA-MB-231 breast
SN12C renal = tested on: SN12C renal
OVCAR-5 ovarian = tested on: OVCAR-5 ovarian
HOP-92 NSCLC = tested on: HOP-92 NSCLC
SNB-19 CNS = tested on: SNB-19 CNS
EKVX NSCLC = tested on: EKVX NSCLC
CCRF-CEM leukemia = tested on: CCRF-CEM leukemia
HCC-2998 colon = tested on: HCC-2998 colon
COLO 205 colon = tested on: COLO 205 colon
OVCAR-8 ovarian = tested on: OVCAR-8 ovarian
MCF7 breast = tested on: MCF7 breast
OVCAR-4 ovarian = tested on: OVCAR-4 ovarian
SF-268 CNS = tested on: SF-268 CNS
PC-3 prostate = tested on: PC-3 prostate
NCI-H226 lung = tested on: NCI-H226 lung
HOP-62 NSCLC = tested on: HOP-62 NSCLC
MALME-3M melanoma = tested on: MALME-3M melanoma
K-562 leukemia = tested on: K-562 leukemia
SK-MEL-2 melanoma = tested on: SK-MEL-2 melanoma
NCI/ADR-RES ovarian = tested on: NCI/ADR-RES ovarian
OVCAR-3 ovarian = tested on: OVCAR-3 ovarian
CAKI-1 renal = tested on: CAKI-1 renal
HT29 colon = tested on: HT29 colon
UO-31 renal = tested on: UO-31 renal
BT-549 breast = tested on: BT-549 breast
SF-295 CNS = tested on: SF-295 CNS
ACHN renal = tested on: ACHN renal
MDA-MB-468 breast = tested on: MDA-MB-468 breast
NCI-H460 NSCLC = tested on: NCI-H460 NSCLC
SNB-75 CNS = tested on: SNB-75 CNS
SK-MEL-28 melanoma = tested on: SK-MEL-28 melanoma
M14 melanoma = tested on: M14 melanoma
SW-620 colon = tested on: SW-620 colon
IGROV1 ovarian = tested on: IGROV1 ovarian
HS 578T breast = tested on: HS 578T breast
NCI-H322M lung = tested on: NCI-H322M lung
MDA-MB-435 melanoma = tested on: MDA-MB-435 melanoma
TK-10 renal = tested on: TK-10 renal
UACC-62 melanoma = tested on: UACC-62 melanoma
A498 renal = tested on: A498 renal
SK-OV-3 ovarian = tested on: SK-OV-3 ovarian
MOLT-4 leukemia = tested on: MOLT-4 leukemia
LOX IMVI melanoma = tested on: LOX IMVI melanoma
NCI-H522 lung = tested on: NCI-H522 lung
A549 NSCLC = tested on: A549 NSCLC
KM12 colon = tested on: KM12 colon
UACC-257 melanoma = tested on: UACC-257 melanoma
U251 glioblastoma = tested on: U251 glioblastoma
HL-60(TB) leukemia = tested on: HL-60(TB) leukemia
RXF 393 renal = tested on: RXF 393 renal
SF-539 CNS = tested on: SF-539 CNS
RPMI-8226 leukemia = tested on: RPMI-8226 leukemia

For Cc1cc(-c2cnn3c(NCC4CC(C)(O)C4)cc(Oc4cccnc4)nc23)ccc1C(=O)NC1CC1 (configuration not stated), the GI50 (DU-145 prostate) was 68.9 nM, the TGI (DU-145 prostate) was > 100000 nM and the GI50 (HCT-116 colon) was 49 nM. The TGI (HCT-116 colon) was > 100000 nM, the GI50 (SK-MEL-5 melanoma) was 74.5 nM and the TGI (SK-MEL-5 melanoma) was > 100000 nM. The GI50 (NCI-H23 lung) was 374 nM, the TGI (NCI-H23 lung) was > 100000 nM and the GI50 (MDA-MB-231 breast) was 735 nM. The TGI (MDA-MB-231 breast) was > 100000 nM, the GI50 (SN12C renal) was 1810 nM and the TGI (SN12C renal) was > 100000 nM. The GI50 (OVCAR-5 ovarian) was 1980 nM, the TGI (OVCAR-5 ovarian) was > 100000 nM and the GI50 (HOP-92 NSCLC) was 4880 nM. For the same compound, the TGI (HOP-92 NSCLC) was > 100000 nM, the GI50 (SNB-19 CNS) was > 100000 nM and the TGI (SNB-19 CNS) was > 100000 nM. The GI50 (EKVX NSCLC) was 1780 nM, the TGI (EKVX NSCLC) was > 100000 nM and the GI50 (CCRF-CEM leukemia) was 23.9 nM. For the same compound, the TGI (CCRF-CEM leukemia) was 50.7 nM, the GI50 (HCC-2998 colon) was 5560 nM and the TGI (HCC-2998 colon) was > 100000 nM. The GI50 (COLO 205 colon) was 39.4 nM, the TGI (COLO 205 colon) was > 100000 nM and the GI50 (OVCAR-8 ovarian) was 80.4 nM. For the same compound, the TGI (OVCAR-8 ovarian) was > 100000 nM, the GI50 (MCF7 breast) was 17200 nM and the TGI (MCF7 breast) was > 100000 nM. The GI50 (OVCAR-4 ovarian) was 5590 nM, the TGI (OVCAR-4 ovarian) was > 100000 nM and the GI50 (SF-268 CNS) was 2180 nM. For the same compound, the TGI (SF-268 CNS) was > 100000 nM, the GI50 (PC-3 prostate) was 1840 nM and the TGI (PC-3 prostate) was > 100000 nM. The GI50 (NCI-H226 lung) was 77300 nM, the TGI (NCI-H226 lung) was > 100000 nM and the GI50 (HOP-62 NSCLC) was 83.4 nM. For the same compound, the TGI (HOP-62 NSCLC) was > 100000 nM, the GI50 (MALME-3M melanoma) was 1090 nM and the TGI (MALME-3M melanoma) was > 100000 nM. The GI50 (K-562 leukemia) was 818 nM, the TGI (K-562 leukemia) was > 100000 nM and the GI50 (SK-MEL-2 melanoma) was 431 nM. For the same compound, the TGI (SK-MEL-2 melanoma) was 3540 nM, the GI50 (NCI/ADR-RES ovarian) was 5900 nM and the TGI (NCI/ADR-RES ovarian) was > 100000 nM. The GI50 (OVCAR-3 ovarian) was 173 nM, the TGI (OVCAR-3 ovarian) was 87900 nM and the GI50 (CAKI-1 renal) was 560 nM. For the same compound, the TGI (CAKI-1 renal) was 94500 nM, the GI50 (HT29 colon) was 2110 nM and the TGI (HT29 colon) was > 100000 nM. The GI50 (UO-31 renal) was 686 nM, the TGI (UO-31 renal) was > 100000 nM and the GI50 (BT-549 breast) was 139 nM. For the same compound, the TGI (BT-549 breast) was > 100000 nM, the GI50 (SF-295 CNS) was 1860 nM and the TGI (SF-295 CNS) was > 100000 nM. The GI50 (ACHN renal) was 906 nM, the TGI (ACHN renal) was > 100000 nM and the GI50 (MDA-MB-468 breast) was 352 nM. The TGI (MDA-MB-468 breast) was 4670 nM, the GI50 (NCI-H460 NSCLC) was 188 nM and the TGI (NCI-H460 NSCLC) was 11900 nM. The GI50 (SNB-75 CNS) was 1910 nM, the TGI (SNB-75 CNS) was > 100000 nM and the GI50 (SK-MEL-28 melanoma) was 11300 nM. For the same compound, the TGI (SK-MEL-28 melanoma) was > 100000 nM, the GI50 (M14 melanoma) was 245 nM and the TGI (M14 melanoma) was > 100000 nM. The GI50 (SW-620 colon) was 62.1 nM, the TGI (SW-620 colon) was > 100000 nM and the GI50 (IGROV1 ovarian) was 1010 nM. For the same compound, the TGI (IGROV1 ovarian) was > 100000 nM, the GI50 (HS 578T breast) was 324 nM and the TGI (HS 578T breast) was 38400 nM. For the same compound, the GI50 (NCI-H322M lung) was 4570 nM, the TGI (NCI-H322M lung) was 21200 nM and the GI50 (MDA-MB-435 melanoma) was 6160 nM. The TGI (MDA-MB-435 melanoma) was > 100000 nM, the GI50 (TK-10 renal) was 442 nM and the TGI (TK-10 renal) was > 100000 nM. The GI50 (UACC-62 melanoma) was 972 nM, the TGI (UACC-62 melanoma) was 62100 nM and the GI50 (A498 renal) was 92.1 nM. The TGI (A498 renal) was > 100000 nM, the GI50 (SK-OV-3 ovarian) was 903 nM and the TGI (SK-OV-3 ovarian) was > 100000 nM. It also gave a GI50 (MOLT-4 leukemia) of 22.7 nM, a TGI (MOLT-4 leukemia) of 43.1 nM and a GI50 (LOX IMVI melanoma) of 49.5 nM. For the same compound, the TGI (LOX IMVI melanoma) was > 100000 nM, the GI50 (NCI-H522 lung) was 467 nM and the TGI (NCI-H522 lung) was 33000 nM. For the same compound, the GI50 (A549 NSCLC) was 90.2 nM, the TGI (A549 NSCLC) was > 100000 nM and the GI50 (KM12 colon) was 67.3 nM. The TGI (KM12 colon) was > 100000 nM, the GI50 (UACC-257 melanoma) was 30700 nM and the TGI (UACC-257 melanoma) was > 100000 nM. For the same compound, the GI50 (U251 glioblastoma) was 65 nM, the TGI (U251 glioblastoma) was > 100000 nM and the GI50 (HL-60(TB) leukemia) was 29.3 nM. It also gave a TGI (HL-60(TB) leukemia) of 63.6 nM, a GI50 (RXF 393 renal) of 64.5 nM and a TGI (RXF 393 renal) of 2980 nM. The GI50 (SF-539 CNS) was 45.5 nM, the TGI (SF-539 CNS) was > 100000 nM and the GI50 (RPMI-8226 leukemia) was 305 nM. For the same compound, the TGI (RPMI-8226 leukemia) was 995 nM.
